Measurements reported in patent US11479537B2, “T-type calcium channel inhibitor” (KINKI UNIVERSITY, priority 2017, dated 2022).

Key:
[1] = test system: human T-type calcium channel; test: Whole-cell patch clamp measurement of T-type calcium channel inhibition (barium T-current); format: cell-based; details: for Ratio of IC50 value to IC50 value of 6-prenylnaringenin (%): IC50 as percentage of the IC50 of 6-prenylnaringenin, measured as in Example 1; for T-type calcium channel inhibitory action (in words): whole-cell patch clamp, in vitro; for Inhibition rate (%): EK293 cell forcibly expressing human T-type calcium channel, 6 cases
Method: Using a human kidney cell-derived cell line, an EK293 cell, in which a human T-type calcium channel was forcibly expressed, the inhibitory effect of 6-prenylnaringenin on the T-type calcium channel was measured by the whole cell patch clamp method.
In the whole-cell patch clamp method, the following solutions are used as an external solution and an internal solution, the holding potential is set to −80 mV, and the barium current was measured as an inward current flow upon a potential jump from −80 mV to −20 mV. Here, in order to eliminate the influence of the high threshold activated-calcium channel, a value obtained by subtracting the current at 150 ms after the start of stimulation from the peak current was used as a T-channel current (T-current) for data analysis.
External Solution Composition
Aqueous solution containing the following: • 97 mM N-methyl-D-glucamine (NMDG); • 10 mM BaCl2; • 10 mM 4-(2-hydroxyethyl)-1-piperazine ethanesulfonic acid (HEPES); • 40 mM tetraethylammonium chloride (TEA-Cl); and • 5 mM glucose • (pH 7.4). Internal Solution Composition
Aqueous solution containing the following: • 4 mM MgCl2; • 140 mM CsCl; • 10 mM HEPES; and • 5 mM glycol ether diamine tetraacetic acid (EGTA) • (pH 7.2).
The inhibitory effect of the compound of the present invention on the T-type calcium channel was measured in the same manner as in Example 1, except that the compound of the present invention was used instead of 6-prenylnaringenin.

[2] = test system: PSNL-induced hyperalgesia; test: Partial sciatic nerve ligation (PSNL)-induced hyperalgesia, pain threshold by von Frey method; format: in vivo, ddY male mice; details: 10 to 30 mg/kg intraperitoneally, mice 7 days after PSNL, versus vehicle group after PSNL
Method: PSNL-induced hyperalgesia was performed using ddY male mice under inhaled isoflurane anesthesia by incising the skin on the femur of the mouse and exposing ⅓ to ½ of the exposed sciatic nerve was completely ligated with a 8-0 suture. […] The pain threshold was measured by the von Frey method.
Compounds-40, 41, 45 and 47 were suspended in 5% aqueous carboxymethylcellulose and administered intraperitoneally using mice after 7 days of PSNL treatment, which is considered to be a chronic phase in which hyperalgesia is stable, and Pain thresholds were measured every minute. As controls, a group to which a solvent was administered after sham operation and a group to which a solvent and 6-prenylnaringenin were administered after induction of hyperalgesia by PNSL were provided.

Ratio of IC50 value to IC50 value of 6-prenylnaringenin (%) [1] [%] | SMILES | T-type calcium channel inhibitory action (in words) [1] | Effect on PSNL-induced hyperalgesia (pain threshold) [2] | other results
7.7 | CCC(=CCc1c(O)cc2c(c1O)C(=O)CC(c1ccc(O)cc1)O2)CC (stereo not shown) [Compound-40, 6-(3-ethyl-pent-2-enyl)-5,7-dihydroxy-2-(4-hydroxy-phenyl)-chroman-4-one] | excellent T-type calcium channel inhibitory activity in vitro | significantly suppressed hyperalgesia | –
2.3 | CCC(=CCc1c(O)cc2c(c1O)C(=O)CC(c1ccccc1O)O2)CC (stereo not shown) [Compound-45, 6-(3-ethyl-pent-2-enyl)-5,7-dihydroxy-2-(2-hydroxy-phenyl)-chroman-4-one] | excellent T-type calcium channel inhibitory activity in vitro | significantly suppressed hyperalgesia | –
15.0 | CCC(CC)CCc1c(O)cc2c(c1O)C(=O)CC(c1ccc(O)cc1)O2 (stereo not shown) [Compound-46, 6-(3-ethyl-pentyl)-5,7-dihydroxy-2-(4-hydroxy-phenyl)-chroman-4-one] | – | – | –
9.0 | O=C1CC(c2ccc(O)cc2)Oc2cc(O)c(CC=C3CCCC3)c(O)c21 (stereo not shown) [Compound-41, 6-(2-cyclopentylidene-ethyl)-5,7-dihydroxy-2-(4-hydroxy-phenyl)-chroman-4-one] | excellent T-type calcium channel inhibitory activity in vitro | significantly suppressed hyperalgesia | –
8.1 | O=C1CC(c2ccc(O)cc2)Oc2cc(O)c(CCC3CCCC3)c(O)c21 (stereo not shown) [Compound-47, 6-(2-cyclopentyl-ethyl)-5,7-dihydroxy-2-(4-hydroxy-phenyl)-chroman-4-one] | excellent T-type calcium channel inhibitory activity in vitro | significantly suppressed hyperalgesia | –
12.5 | CC(C)=CCc1c(O)cc2c(c1O)C(=O)CC(c1cccc(O)c1)O2 (stereo not shown) [Compound-34, 5,7-dihydroxy-2-(3-hydroxy-phenyl)-6-(3-methyl-but-2-enyl)-chroman-4-one] | – | – | –
54.8 | CCCC(=CCc1c(O)cc2c(c1O)C(=O)CC(c1ccc(O)cc1)O2)CCC (stereo not shown) [Compound-48, 5,7-dihydroxy-2-(4-hydroxy-phenyl)-6-(3-propyl-hex-2-enyl)-chroman-4-one] | – | – | –

Second part, the compound before the results:

SMILES | Ratio of IC50 value to IC50 value of 6-prenylnaringenin (%) [1] [%] | T-type calcium channel inhibitory action (in words) [1] | Effect on PSNL-induced hyperalgesia (pain threshold) [2] | other results
CC(C)=CCc1c(O)cc2c(c1O)C(=O)CC(c1c(O)cccc1O)O2 (stereo not shown) [Compound-42, 2-(2,6-dihydroxy-phenyl)-5,7-dihydroxy-6-(3-methyl-but-2-enyl)-chroman-4-one] | 72.3 | – | – | –
CC(C)CCc1c(O)cc2c(c1O)C(=O)CC(c1ccc(O)cc1)O2 (stereo not shown) [Compound-39, 5,7-dihydroxy-2-(4-hydroxy-phenyl)-6-(3-methyl-butyl)-chroman-4-one] | 10.6 | – | – | –
CC(C)=CCc1ccc2c(c1O)C(=O)CC(c1ccccc1O)O2 (stereo not shown) [Compound-43, 5-hydroxy-2-(2-hydroxy-phenyl)-6-(3-methyl-but-2-enyl)-chroman-4-one] | 26.6 | – | – | –
CC(C)=CCc1c(O)cc2c(c1O)C(=O)CC(c1ccc(O)c(O)c1)O2 (stereo not shown) [Compound-36, 2-(3,4-dihydroxy-phenyl)-5,7-dihydroxy-6-(3-methyl-but-2-enyl)-chroman-4-one] | 87.5 | – | – | –
CC(C)=CCc1c(O)cc2c(c1O)C(=O)CC(c1ccccc1O)O2 (stereo not shown) [Compound-33, 5,7-dihydroxy-2-(2-hydroxy-phenyl)-6-(3-methyl-but-2-enyl)-chroman-4-one] | 12.2 | – | – | –
CC(C)=CCc1c(O)cc2c(c1O)C(=O)C[C@@H](c1ccc(O)cc1)O2 [6-prenylnaringenin, 6-Prenylnaringenin, reference compound] | – | excellent T-type calcium channel inhibitory action | – | IC50 ([1]; calculated by GraphPad Prism from the results of Example 1): 801 nM; Inhibition rate (%) ([1]; compound concentration 300 nM): 0%; Inhibition rate (%) ([1]; compound concentration 1000 nM): 82.7%; Inhibition rate (%) ([1]; compound concentration 3000 nM): 99.0%
